Assay results published in US9206184B2, “Disubstituted benzothienyl-pyrrolotriazines and uses thereof” (BAYER INTELLECTUAL PROPERTY GmbH, priority 2011, dated 2015).
Structures can show the parent of a compound that is named as a salt.

Key:
human FGFR-3 = human FGFR-3 (Homo sapiens (Human), UniProt P22607); experiment: FGFR-3 kinase assay (TR-FRET); format: biochemical; conditions: 10 μM ATP; 15 min pre-incubation with enzyme; compounds of the invention
human mTOR = human mTOR (Homo sapiens (Human), UniProt P42345); experiment: mTOR kinase assay (TR-FRET, for comparative purposes); format: biochemical; conditions: mean inhibition at 1 μM test compound; 40 μM ATP
Chain of human mTOR (P42345 1360-2549): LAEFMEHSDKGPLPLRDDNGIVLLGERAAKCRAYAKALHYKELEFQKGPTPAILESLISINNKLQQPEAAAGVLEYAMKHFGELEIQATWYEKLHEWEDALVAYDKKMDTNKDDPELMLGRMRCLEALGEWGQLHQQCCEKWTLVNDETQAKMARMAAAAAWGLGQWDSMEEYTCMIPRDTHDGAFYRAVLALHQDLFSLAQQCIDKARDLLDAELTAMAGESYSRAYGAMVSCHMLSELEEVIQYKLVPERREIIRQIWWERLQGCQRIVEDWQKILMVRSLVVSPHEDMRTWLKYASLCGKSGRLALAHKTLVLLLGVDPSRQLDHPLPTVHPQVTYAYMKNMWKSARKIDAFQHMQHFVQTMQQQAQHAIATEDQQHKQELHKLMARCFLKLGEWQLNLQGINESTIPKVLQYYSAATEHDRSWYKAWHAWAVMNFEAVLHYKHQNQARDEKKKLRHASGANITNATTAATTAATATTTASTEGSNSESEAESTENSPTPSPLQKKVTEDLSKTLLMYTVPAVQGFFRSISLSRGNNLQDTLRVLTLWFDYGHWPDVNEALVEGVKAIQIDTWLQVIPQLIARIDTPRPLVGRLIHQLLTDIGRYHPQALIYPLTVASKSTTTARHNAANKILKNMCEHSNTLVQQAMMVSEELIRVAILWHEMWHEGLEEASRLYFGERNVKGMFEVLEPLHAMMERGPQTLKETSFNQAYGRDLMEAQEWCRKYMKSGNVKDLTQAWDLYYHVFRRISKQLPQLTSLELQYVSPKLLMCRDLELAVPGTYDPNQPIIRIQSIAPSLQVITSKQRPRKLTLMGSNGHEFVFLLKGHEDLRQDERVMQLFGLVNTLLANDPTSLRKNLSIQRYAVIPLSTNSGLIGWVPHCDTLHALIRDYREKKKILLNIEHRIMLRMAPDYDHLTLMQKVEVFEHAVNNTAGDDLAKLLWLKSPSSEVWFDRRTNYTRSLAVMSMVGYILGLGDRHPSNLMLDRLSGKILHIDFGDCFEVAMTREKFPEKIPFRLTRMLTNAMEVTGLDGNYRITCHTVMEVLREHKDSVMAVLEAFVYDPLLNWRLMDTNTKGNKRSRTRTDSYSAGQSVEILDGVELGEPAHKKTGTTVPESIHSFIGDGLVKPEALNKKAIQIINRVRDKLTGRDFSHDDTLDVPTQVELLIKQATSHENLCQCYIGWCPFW

[1] = test system: Human umbilical vein endothelial cells (HUVEC); experiment: Inhibition of growth factor-mediated cell proliferation (hFGF-2, HUVEC); format: cell-based; conditions: 72 h, read-out: hFGF-2 mediated HUVEC proliferation, IC50 [nM]
human FGFR-1 = human FGFR-1 (Homo sapiens, UniProt P11362); experiment: FGFR-1 high ATP kinase assay (TR-FRET); format: biochemical; conditions: 2 mM ATP; 15 min pre-incubation with enzyme; compounds of the invention
Chain of human FGFR-1 (P11362 22-822 limits assumed): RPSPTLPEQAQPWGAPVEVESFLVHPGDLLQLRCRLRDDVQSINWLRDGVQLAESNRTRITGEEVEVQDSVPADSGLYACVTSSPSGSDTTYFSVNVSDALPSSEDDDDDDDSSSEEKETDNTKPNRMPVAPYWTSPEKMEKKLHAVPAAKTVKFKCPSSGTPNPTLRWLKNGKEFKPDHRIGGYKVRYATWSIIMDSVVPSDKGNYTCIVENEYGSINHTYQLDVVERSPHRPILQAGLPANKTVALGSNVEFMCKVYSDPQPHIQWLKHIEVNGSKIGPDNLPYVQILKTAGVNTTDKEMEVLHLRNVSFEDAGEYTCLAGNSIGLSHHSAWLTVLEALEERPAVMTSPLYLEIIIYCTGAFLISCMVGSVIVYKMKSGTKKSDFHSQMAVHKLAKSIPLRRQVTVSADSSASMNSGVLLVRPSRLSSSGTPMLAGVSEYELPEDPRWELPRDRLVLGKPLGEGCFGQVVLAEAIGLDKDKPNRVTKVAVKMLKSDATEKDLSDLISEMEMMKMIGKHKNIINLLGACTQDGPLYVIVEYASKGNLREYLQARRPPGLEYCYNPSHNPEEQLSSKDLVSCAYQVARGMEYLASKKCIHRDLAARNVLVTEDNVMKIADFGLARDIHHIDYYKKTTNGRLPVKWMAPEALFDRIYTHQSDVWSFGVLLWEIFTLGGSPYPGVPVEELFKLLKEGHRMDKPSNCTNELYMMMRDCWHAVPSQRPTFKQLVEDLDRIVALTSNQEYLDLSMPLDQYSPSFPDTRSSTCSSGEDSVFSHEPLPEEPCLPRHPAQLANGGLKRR

Chain of human FGFR-3 (P22607 397-806): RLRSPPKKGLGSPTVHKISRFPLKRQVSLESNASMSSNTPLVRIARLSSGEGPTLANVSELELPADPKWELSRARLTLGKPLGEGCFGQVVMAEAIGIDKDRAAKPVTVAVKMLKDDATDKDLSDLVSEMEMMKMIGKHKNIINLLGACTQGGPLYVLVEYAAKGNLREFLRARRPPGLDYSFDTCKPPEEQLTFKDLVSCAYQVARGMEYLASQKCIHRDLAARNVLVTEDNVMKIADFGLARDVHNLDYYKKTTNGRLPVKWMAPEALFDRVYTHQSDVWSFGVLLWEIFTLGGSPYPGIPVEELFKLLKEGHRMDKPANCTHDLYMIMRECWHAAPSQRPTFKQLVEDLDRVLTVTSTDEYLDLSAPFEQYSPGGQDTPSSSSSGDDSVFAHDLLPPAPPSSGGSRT

Structure (SMILES) | IC50 (human FGFR-3) [nM] | mTOR inhibition @ 1 μM (human mTOR) | IC50 [1] [nM] | IC50 (human FGFR-1) [nM]
COc1cc(C)cc2cc(-c3c(CN4CCC(O)C4)c(CN4CCNCC4)n4ncnc(N)c34)sc12 (racemic) [Example 42, rac-1-{[4-Amino-5-(7-methoxy-5-methyl-1-benzothiophen-2-yl)-7-(piperazin-1-ylmethyl)pyrrolo-[2,1-f][1,2,4]triazin-6-yl]methyl}pyrrolidin-3-ol trihydrochloride] | 18.4 | no inhib. effect detect. |  | 
COc1cc(C)cc2cc(-c3c(CNC(C)=O)c(CN4CCNCC4)n4ncnc(N)c34)sc12 [Example 64, N-{[4-Amino-5-(7-methoxy-5-methyl-1-benzothiophen-2-yl)-7-(piperazin-1-ylmethyl)pyrrolo-[2,1-f][1,2,4]triazin-6-yl]methyl}acetamide dihydrochloride] |  |  | 4.5 | 
CCOCc1c(-c2cc3cc(C)cc(OC)c3s2)c2c(N)ncnn2c1C(=O)N1CCC(O)CC1 [Example 121] | 24.6 | no inhib. effect detect. |  | 8.2
COc1cc(C)cc2cc(-c3c(CNCCO)c(CN4CCNCC4)n4ncnc(N)c34)sc12 [Example 39, 2-({[4-Amino-5-(7-methoxy-5-methyl-1-benzothiophen-2-yl)-7-(piperazin-1-ylmethyl)pyrrolo-[2,1-f][1,2,4]triazin-6-yl]methyl}amino)ethanol trihydrochloride] |  |  | 365 | 
COc1cc(C)cc2cc(-c3c(CN4CCC(O)CC4)c(CN4CCNCC4)n4ncnc(N)c34)sc12 [Example 41, 1-{[4-Amino-5-(7-methoxy-5-methyl-1-benzothiophen-2-yl)-7-(piperazin-1-ylmethyl)pyrrolo-[2,1-f][1,2,4]triazin-6-yl]methyl}piperidin-4-ol trihydrochloride] | 7.2 | no inhib. effect detect. |  | 2.8
COc1cc(C)cc2cc(-c3c(CNC4CC4)c(CN4CCNCC4)n4ncnc(N)c34)sc12 [Example 46, 6-[(Cyclopropylamino)methyl]-5-(7-methoxy-5-methyl-1-benzothiophen-2-yl)-7-(piperazin-1-ylmethyl)pyrrolo[2,1-f][1,2,4]triazin-4-amine trihydrochloride] |  |  | 84.5 | 
CCOCc1c(-c2cc3cc(C)cc(OC)c3s2)c2c(N)ncnn2c1CN1CCNCC1 [Example 18, 6-(Ethoxymethyl)-5-(7-methoxy-5-methyl-1-benzothiophen-2-yl)-7-(piperazin-1-ylmethyl)pyrrolo-[2,1-f][1,2,4]triazin-4-amine] |  | no inhib. effect detect. |  | 
COCCOCc1c(-c2cc3cc(C)cc(OC)c3s2)c2c(N)ncnn2c1CN1CCNCC1 [Example 28, 6-[(2-Methoxyethoxy)methyl]-5-(7-methoxy-5-methyl-1-benzothiophen-2-yl)-7-(piperazin-1-ylmethyl)pyrrolo[2,1-f][1,2,4]triazin-4-amine formiate] | 9.7 | no inhib. effect detect. |  | 2.1
CCOCc1c(-c2cc3cc(C)cc(OC)c3s2)c2c(N)ncnn2c1CNCC(N)=O [Example 9, N^2-{[4-Amino-6-(ethoxymethyl)-5-(7-methoxy-5-methyl-1-benzothiophen-2-yl)pyrrolo[2,1-f]-[1,2,4]triazin-7-yl]methyl}glycinamide dihydrochloride] |  | no inhib. effect detect. |  | 
COc1cc(C)cc2cc(-c3c(CN4CCCC4)c(CN4CCNCC4)n4ncnc(N)c34)sc12 [Example 45, 5-(7-Methoxy-5-methyl-1-benzothiophen-2-yl)-7-(piperazin-1-ylmethyl)-6-(pyrrolidin-1-ylmethyl)pyrrolo[2,1-f][1,2,4]triazin-4-amine trihydrochloride] |  |  | 171 | 
CCNCc1c(-c2cc3cc(C)cc(OC)c3s2)c2c(N)ncnn2c1CN1CCNCC1 [Example 38, 6-[(Ethylamino)methyl]-5-(7-methoxy-5-methyl-1-benzothiophen-2-yl)-7-(piperazin-1-ylmethyl)pyrrolo[2,1-f][1,2,4]triazin-4-amine trihydrochloride] |  |  | 213 | 
COc1cc(C)cc2cc(-c3c(COCC(N)=O)c(CN4CCNCC4)n4ncnc(N)c34)sc12 [Example 33, 2-{[4-Amino-5-(7-methoxy-5-methyl-1-benzothiophen-2-yl)-7-(piperazin-1-ylmethyl)pyrrolo-[2,1-f][1,2,4]triazin-6-yl]methoxy}acetamide] | 7.2 |  |  | 1
CCOCc1c(-c2cc3cc(C)cc(OC)c3s2)c2c(N)ncnn2c1C(=O)N1CCS(=O)(=O)C1 [Example 119] | 4.5 | no inhib. effect detect. |  | 9
COc1cc(C)cc2cc(-c3c(CNCC(C)(C)O)c(C)n4ncnc(N)c34)sc12 [Example 77, 1-({[4-Amino-5-(7-methoxy-5-methyl-1-benzothiophen-2-yl)-7-methylpyrrolo[2,1-f][1,2,4]triazin-6-yl]methyl}amino)-2-methylpropan-2-ol formiate] | 3.8 |  |  | 1.4
COc1cc(C)cc2cc(-c3c(CN4CCNC(=O)C4)c(C)n4ncnc(N)c34)sc12 [Example 76, 4-{[4-Amino-5-(7-methoxy-5-methyl-1-benzothiophen-2-yl)-7-methylpyrrolo[2,1-f][1,2,4]triazin-6-yl]methyl}piperazin-2-one] | 1.4 |  |  | 2.8
COCc1c(-c2cc3cc(C)cc(OC)c3s2)c2c(N)ncnn2c1CN1CCN(C(C)=O)CC1 [Example 16, 1-(4-{[4-Amino-6-(methoxymethyl)-5-(7-methoxy-5-methyl-1-benzothiophen-2-yl)pyrrolo[2,1-f]-[1,2,4]triazin-7-yl]methyl}piperazin-1-yl)ethanone dihydrochloride] |  |  | 117 | 
CCOCc1c(-c2cc3cc(C)cc(OC)c3s2)c2c(N)ncnn2c1C(=O)N[C@@H]1CCNC1=O [Example 106, 4-Amino-6-(ethoxymethyl)-5-(7-methoxy-5-methyl-1-benzothiophen-2-yl)-N-[(3R)-2-oxopyrrolidin-3-yl]pyrrolo[2,1-f][1,2,4]triazine-7-carboxamide] | 7.1 |  |  | 6.4
COCc1c(-c2cc3cc(C)cc(OC)c3s2)c2c(N)ncnn2c1CN1CC[C@](C)(N)C1 [Example 14, 7-{[(3S)-3-Amino-3-methylpyrrolidin-1-yl]methyl}-6-(methoxymethyl)-5-(7-methoxy-5-methyl-1-benzothiophen-2-yl)pyrrolo[2,1-f][1,2,4]triazin-4-amine trihydrochloride] |  |  | 25 | 1.4
COc1cc(C)cc2cc(-c3c(CN[C@H]4CCNC4=O)c(CN4CCOCC4)n4ncnc(N)c34)sc12 [Example 51, (3S)-3-({[4-Amino-5-(7-methoxy-5-methyl-1-benzothiophen-2-yl)-7-(morpholin-4-ylmethyl)pyrrolo[2,1-f][1,2,4]triazin-6-yl]methyl}amino)pyrrolidin-2-one] | 3.9 |  |  | 4.4
CCOCc1c(-c2cc3cc(C)cc(OC)c3s2)c2c(N)ncnn2c1C(=O)N1CCNC(=O)C1 [Example 107, 4-{[4-Amino-6-(ethoxymethyl)-5-(7-methoxy-5-methyl-1-benzothiophen-2-yl)pyrrolo[2,1-f]-[1,2,4]triazin-7-yl]carbonyl}piperazin-2-one] | 17.4 | no inhib. effect detect. |  | 9.4
CCOCc1c(-c2cc3cc(C)cc(OC)c3s2)c2c(N)ncnn2c1CN1CCC(O)CC1 [Example 98] |  | no inhib. effect detect. |  | 17
COc1cc(C)cc2cc(-c3c(CN4CCNC(=O)C4)c(CN4CCN(C=O)CC4)n4ncnc(N)c34)sc12 [Example 58, 4-({4-Amino-5-(7-methoxy-5-methyl-1-benzothiophen-2-yl)-6-[(3-oxopiperazin-1-yl)methyl]-pyrrolo[2,1-f][1,2,4]triazin-7-yl}methyl)piperazine-1-carbaldehyde formiate] | 9.8 |  |  | 6.8
COc1cc(C)cc2cc(-c3c(CN[C@@H]4CCNC4=O)c(CN4CCN(C(C)=O)CC4)n4ncnc(N)c34)sc12 [Example 56, (3R)-3-[({7-[(4-Acetylpiperazin-1-yl)methyl]-4-amino-5-(7-methoxy-5-methyl-1-benzothiophen-2-yl)pyrrolo[2,1-f][1,2,4]triazin-6-yl}methyl)amino]pyrrolidin-2-one] | 2 |  |  | 2.4
CCOCc1c(-c2cc3cc(C)cc(OC)c3s2)c2c(N)ncnn2c1CN1CCNC(=O)C1(C)C [Example 95] | 28.7 |  |  | 17
COc1cc(C)cc2cc(-c3c(COc4ccccc4)c(CN4CCNCC4)n4ncnc(N)c34)sc12 [Example 35, 5-(7-Methoxy-5-methyl-1-benzothiophen-2-yl)-6-(phenoxymethyl)-7-(piperazin-1-ylmethyl)pyrrolo[2,1-f][1,2,4]triazin-4-amine bis(formiate)] | 65.4 |  |  | 61.3
COc1cc(C)cc2cc(-c3c(COC4CCC4)c(CN4CCNCC4)n4ncnc(N)c34)sc12 [Example 26, 6-[(Cyclobutyloxy)methyl]-5-(7-methoxy-5-methyl-1-benzothiophen-2-yl)-7-(piperazin-1-ylmethyl)pyrrolo[2,1-f][1,2,4]triazin-4-amine] | 4.9 |  |  | 0.9
COc1cc(C)cc2cc(-c3c(CNCC(C)(C)O)c(Cl)n4ncnc(N)c34)sc12 [Example 82, 1-({[4-Amino-7-chloro-5-(7-methoxy-5-methyl-1-benzothiophen-2-yl)pyrrolo[2,1-f][1,2,4]triazin-6-yl]methyl}amino)-2-methylpropan-2-ol] | 16 |  |  | 3.4
COCc1c(-c2cc3cc(C)ccc3s2)c2c(N)ncnn2c1CN1CCNC(=O)C1 [Example 89, 4-{[4-Amino-6-(methoxymethyl)-5-(5-methyl-1-benzothiophen-2-yl)pyrrolo[2,1-f][1,2,4]triazin-7-yl]methyl}piperazin-2-one] |  | no inhib. effect detect. |  | 82.9
